System: 8-oxo-dG staining in the PFC of NVHL rats
Experiment: 8-oxo-dG labeling (DNA oxidation) in PFC of NVHL rats
Assay type: in vivo, Sprague-Dawley rats
Text: To assess oxidative stress, DNA oxidation with 8-oxo-7,8-dihydro-20-deoxyguanine (8-oxo-dG) labeling was quantified. […] 3-NT indicates nitration of proteins due to oxidative and nitrosative stress (Radi, 2004), and its increase in NVHL rats was prevented by NAC treatment during development (as shown in FIGS. 9A and 9B). […] A possible explanation for the levels of oxidative stress detected in the adult PFC following an NVHL is the reduced glutamatergic input from ventral hippocampus during development, as blocking NMDA receptors induces oxidative stress in PVI (Behrens et al., 2007).
To determine the types of interneurons expressing oxidative stress in NVHL rats, 8-oxo-dG with PV, calbindin (CB) and calretinin (CR) was co-labeled. […] About 50% of PVI were co-labeled with 8-oxo-dG, indicating oxidative stress is pervasive in this cell population. A marker of PVI maturation is Wisteria Floribunda agglutinin (WFA), a lectin that recognizes the perineuronal nets (PNN) enwrapping mature cortical PVI. […] PVI may be highly exposed to increased oxidative stress because they make up the majority of fast-spiking interneurons and their high energy metabolism may generate more reactive oxygen species than non-fast spiking neurons.
Animals: Timed-pregnant Sprague-Dawley rats were obtained at gestational days 13-15 from Charles River (Wilmington, MA) and were individually housed with free access to food and water in a temperature- and humidity-controlled environment with a 12:12h light/dark cycle (lights on at 7:00 AM). When pups reached P5, half of the dams received NAC in their drinking water. Pups were left undisturbed until P7-9 when healthy offspring were randomly separated and received either NVHL or sham surgery. At P21, male and female pups were either transcardially perfused with 4% paraformaldehyde for immunocytochemistry or weaned and housed in groups of two to three, counterbalanced across lesion status. NAC treatment lasted throughout adolescence until P50. After reaching adulthood (>P60), animals were either perfused with 4% paraformaldehyde for immunocytochemistry, perfused with artificial cerebrospinal fluid (aCSF) for slice electrophysiology, utilized for in vivo intracellular recordings, or tested for PPI or MMN.
Neonatal ventral hippocampal lesion surgery: Between P7 and P9, pups (15-20 g) received either an excitotoxic lesion of the ventral hippocampus (NVHL) or sham procedure, as previously described (Chambers and Lipska, 2011). Pups were anesthetized with hypothermia and secured to a Styrofoam platform attached to a stereotaxic frame (David Kopf Instruments, Tujunga, CA). […]

With `CC(=O)N[C@@H](CS)C(=O)O` [NAC, N-acetyl cysteine] the “effect on 8-oxo-dG labeling in PV interneurons” value (NVHL rats, developmental treatment) was “prevented”, the “effect on increase in 8-oxo-dG staining in PFC” value (P21 NVHL rats, drinking water 900 mg/l from P5) was “completely prevented” and the “effect on increase in 8-oxo-dG in PFC” value (P61 NVHL rats, drinking water 900 mg/l, P5 to P50) was “prevented”. For the same compound, the “multiple markers of oxidative stress” value (adult NVHL rats, juvenile treatment, to levels comparable to control rats) was “decreased”.

From patent US20240050409A1, “Methods and Compositions for Treating Psychotic Disorders” (SOUND PHARMACEUTICALS INCORPORATED, priority 2014, published 2024)
